The target of the assay is T1, hTRPV1 (Homo sapiens, UniProt Q8NER1).
T1 construct: expressed in transfected cells; host or cells: HEK293
Briefly: Human TRPV1 (hTRPV1) functional assay, FLIPR intracellular Ca2+, capsaicin challenge. The format is cell-based. Particulars: HEK293 cells expressing hTRPV1, capsaicin 0.030 μM challenge; for inhibition at 0.5 µM: test concentration of 0.5 μm, read-out: percent inhibition (symbol a); for IC50: derived from a variety of test concentrations, read-out: IC50 value (symbol c); for inhibition at 0.2 µM: test concentration of 0.2 μm, read-out: percent inhibition (symbol b). The procedure: The functional activity of the test compounds was determined by measuring changes in intracellular calcium concentration using a Ca^++-sensitive fluorescent dye and FLIPR™ technology. Increases in Ca^++ concentration were readily detected upon challenge with capsaicin.
HEK293 cells expressing hTRPV1 were grown on poly-D-lysine coated 384 well black-walled plates (BD 354663) and 1 day later loaded with Calcium 3 Dye for 35 min at 37° C., 5% CO2 and then for 25 min at room temperature, and subsequently tested for agonist-induced increases in intracellular Ca^2+ levels using FLIPR™ technology. Cells were challenged with test compounds (at varying concentrations) and intracellular Ca^2+ was measured for 5 min prior to the addition of capsaicin to all wells to achieve a final concentration of 0.030 μM eliciting ˜80% maximal response.
EC50 or IC50 values were determined from concentration-response studies, which were generated using the average of quadruplicate wells for each data point. The symbol “a” represents percent inhibition obtained at a test concentration of 0.5 μm; the symbol “b” represents percent inhibition obtained at a test concentration of 0.2 μm; the symbol “c” represents an IC50 value (nM) derived from a variety of test concentrations. The term “NA” means that the result is not applicable for a particular compound.

One may read the inhibition as the change of the read-out against control, counted positive when it falls. The IC50 is the concentration at which inhibition is half-maximal.

T1 sequence (Q8NER1 whole entry): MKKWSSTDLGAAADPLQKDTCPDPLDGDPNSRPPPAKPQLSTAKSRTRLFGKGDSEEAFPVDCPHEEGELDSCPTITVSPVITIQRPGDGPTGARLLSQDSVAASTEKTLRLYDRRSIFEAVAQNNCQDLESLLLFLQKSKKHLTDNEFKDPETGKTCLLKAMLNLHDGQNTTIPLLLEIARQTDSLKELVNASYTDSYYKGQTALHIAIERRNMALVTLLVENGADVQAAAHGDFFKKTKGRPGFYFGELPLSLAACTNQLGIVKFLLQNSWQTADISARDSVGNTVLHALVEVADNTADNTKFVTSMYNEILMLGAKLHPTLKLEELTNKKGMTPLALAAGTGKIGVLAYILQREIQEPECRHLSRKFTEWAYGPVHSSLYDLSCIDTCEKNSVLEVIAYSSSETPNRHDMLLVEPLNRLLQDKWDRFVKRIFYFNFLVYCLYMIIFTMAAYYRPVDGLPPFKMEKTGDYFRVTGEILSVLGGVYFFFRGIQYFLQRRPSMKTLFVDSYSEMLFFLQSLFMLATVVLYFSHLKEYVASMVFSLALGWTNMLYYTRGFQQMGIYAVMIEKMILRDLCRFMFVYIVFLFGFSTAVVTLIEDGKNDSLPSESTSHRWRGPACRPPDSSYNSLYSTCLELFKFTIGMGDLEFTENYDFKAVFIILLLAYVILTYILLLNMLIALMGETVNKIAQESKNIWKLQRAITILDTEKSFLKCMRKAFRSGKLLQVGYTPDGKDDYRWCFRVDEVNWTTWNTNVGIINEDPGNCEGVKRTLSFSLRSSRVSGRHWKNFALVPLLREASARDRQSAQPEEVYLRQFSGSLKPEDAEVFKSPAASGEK

On to `NS(=O)(=O)c1ccccc1-c1ccc2[nH]c(COc3ccncc3)nc2c1` [Cpd 38, 2-[2-(pyridin-4-yloxymethyl)-1H-benzoimidazol-5-yl]-benzenesulfonamide], for which the inhibition at 0.5 µM stood at 13%.

`NS(=O)(=O)c1ccccc1-c1ccc2[nH]c(COc3ccc(C(F)(F)F)cn3)nc2c1` [Cpd 39, 2-[2-(5-trifluoromethyl-pyridin-2-yloxymethyl)-1H-benzoimidazol-5-yl]-benzenesulfonamide]: the inhibition at 0.5 µM turned out to be 5%.

For `Cn1c(COc2ccc(C(F)(F)F)cc2)nc2cc(-c3ccccc3S(N)(=O)=O)ccc21` [Cpd 40, 2-[1-methyl-2-(4-trifluoromethyl-phenoxymethyl)-1H-benzoimidazol-5-yl]-benzenesulfonamide], the IC50 was determined as 8.6 nM and the inhibition at 0.5 µM stood at 100%.

On to `NS(=O)(=O)c1ccccc1-c1ccc2[nH]c(CSc3ccc(C(F)(F)F)cc3)nc2c1` [Cpd 41, 2-[2-(4-trifluoromethyl-phenylsulfanylmethyl)-1H-benzoimidazol-5-yl]-benzenesulfonamide], for which the IC50 came to 4.9 nM and the inhibition at 0.2 µM was found to be 98%.

For `NS(=O)(=O)c1ccccc1-c1ccc2[nH]c(CSc3ccc(Cl)cc3)nc2c1` [Cpd 42, 2-[2-(4-chloro-phenylsulfanylmethyl)-1H-benzoimidazol-5-yl]-benzenesulfonamide], the IC50 came to 75 nM and the inhibition at 0.2 µM was found to be 93%.

On to `NS(=O)(=O)c1ccccc1-c1ccc2[nH]c(CSc3ccc(OC(F)(F)F)cc3)nc2c1` [Cpd 43, 2-[2-(4-trifluoromethoxy-phenylsulfanylmethyl)-1H-benzoimidazol-5-yl]-benzenesulfonamide], for which the half-maximal inhibitory concentration (IC50) is 123 nM and the inhibition at 0.2 µM is 87%.

Regarding `NS(=O)(=O)c1ccccc1-c1ccc2[nH]c(CS(=O)(=O)c3ccc(C(F)(F)F)cc3)nc2c1` [Cpd 44, 2-[2-(4-trifluoromethyl-benzenesulfonylmethyl)-1H-benzoimidazol-5-yl]-benzenesulfonamide], the inhibition at 0.2 µM stood at 12%.

For `NS(=O)(=O)c1ccccc1-c1ccc2[nH]c(CS(=O)(=O)c3ccc(Cl)cc3)nc2c1` [Cpd 45, 2-[2-(4-chloro-benzenesulfonylmethyl)-1H-benzoimidazol-5-yl]-benzenesulfonamide], the inhibition at 0.2 µM is 2%.

As to `NS(=O)(=O)c1ccccc1-c1ccc2[nH]c(CS(=O)(=O)c3ccc(OC(F)(F)F)cc3)nc2c1` [Cpd 46, 2-[2-(4-trifluoromethoxy-benzenesulfonylmethyl)-1H-benzoimidazol-5-yl]-benzenesulfonamide], the inhibition at 0.2 µM amounted to 5%.

For `NS(=O)(=O)c1ccccc1-c1ccc2[nH]c(CNc3ccc(C(F)(F)F)cc3)nc2c1` [Cpd 47, 2-{2-[(4-trifluoromethyl-phenylamino)-methyl]-1H-benzoimidazol-5-yl}-benzenesulfonamide], the inhibition at 0.2 µM is 46%.

In the case of `NS(=O)(=O)c1ccccc1-c1ccc2[nH]c(CNc3ccc(OC(F)(F)F)cc3)nc2c1` [Cpd 48, 2-{2-[(4-trifluoromethoxy-phenylamino)-methyl]-1H-benzoimidazol-5-yl}-benzenesulfonamide], the inhibition at 0.2 µM is 41%.

Turning to `CC(=O)c1ccccc1-c1ccc2[nH]c(COc3ccc(C(F)(F)F)cc3)nc2c1` [Cpd 49, 1-{2-[2-(4-trifluoromethyl-phenoxymethyl)-1H-benzoimidazol-5-yl]-phenyl}-ethanone], the IC50 was 106 nM and the inhibition at 0.2 µM worked out at 89%.

With `CC(C)(O)c1ccccc1-c1ccc2[nH]c(COc3ccccc3)nc2c1` [Cpd 50, 2-[2-(2-phenoxymethyl-1H-benzoimidazol-5-yl)-phenyl]-propan-2-ol], the IC50 turned out to be 91 nM and the inhibition at 0.2 µM stood at 81%.

For `CNS(=O)(=O)c1ccccc1-c1ccc2[nH]c(COc3ccc(C(C)C)cc3)nc2c1` [Cpd 51, 2-[2-(4-isopropyl-phenoxymethyl)-1H-benzoimidazol-5-yl]-N-methyl-benzenesulfonamide], the IC50 worked out at 7.8 nM and the inhibition at 0.2 µM amounted to 100%.
